ED50 data for 75 compounds are collected here from patent publication US5470862A, “Substituted pyrazolyl compounds and methods employing such compounds” (Ohmeda Pharmaceutical Products Division Inc., priority 1995, dated 1995).

The test system of the first assay is rats. Put plainly: Loss of righting after intravenous administration (rat). The class given is in vivo. To be noted: 20 min; rat (asterisk), intravenous (lateral tail vein), 20 minute observation; acid addition salts, values corrected for the salts. Here is the method: (§1) The acid addition salts of the compounds were dissolved in sterile water for injection, U.S.P, to form a solution, the concentration of which varied from 0.001 mg/ml to 5 mg/ml. Mice or rats were used for the tests. The test solution was administered to the test animal intravenously through the lateral tail vein. The animals were observed over a 20 minute period for loss of righting which is defined as the animal remaining in a supine position for 30 seconds. Five to ten mice and three to six rats were utilized for each dosage. The ED50 was calculated for each test compound either by linear regression or by a standard computer program utilizing the method of Litchfield and Wilcoxon, J. Pharmacol. Exp. Ther., vol. 96, p. 99 (1949). Since different animals were used, the ED50 values in Table 1 are those determined in the mouse except those values marked with an asterisk which were determined in the rat.
With `CCOC(=O)c1cc(-c2nnco2)n(C(C)c2ccccn2)n1` (stereo not drawn), the ED50 (as a rule, the dose at which the effect has come halfway, by size or by number of responders) stood at 7.2 mg/kg.

In the case of `CCOC(=O)c1cc(-c2csc(-c3cccnc3)n2)nn1C(C)c1ccccn1` (stereo not drawn), the ED50 amounted to 1.1 mg/kg.

Consider `CCOC(=O)c1cc(-c2coc(C)n2)nn1C(C)c1ccccn1` (stereo not drawn), for which the ED50 came out at 1.2 mg/kg.

With `CCOC(=O)c1cc(-c2coc(C)n2)n(C(C)c2ccccn2)n1` (stereo not drawn), the ED50 turned out to be 8.8 mg/kg.

Regarding `CCOC(=O)c1cc(-c2ocnc2C)n(C(C)c2ccccn2)n1` (stereo not drawn), the ED50 turned out to be 23.2 mg/kg.

Take `CCOC(=O)c1cc(-c2cc(C)no2)nn1C(C)c1ccccn1` (stereo not drawn): the ED50 worked out at 3.8 mg/kg.

`CCOC(=O)c1cc(-c2cc(C)no2)n(C(C)c2ccccn2)n1` (stereo not drawn): the ED50 came out at 7.2 mg/kg.

Take `CCOC(=O)c1cc(-c2ncc(C)o2)nn1C(C)c1ccccn1` (stereo not drawn): the ED50 is 1.1 mg/kg.

Take `CCOC(=O)c1cc(-c2ncc(C)o2)n(C(C)c2ccccn2)n1` (stereo not drawn): the 50% effective dose (ED50) turned out to be 0.85 mg/kg.

With `CCOC(=O)c1cc(-c2ncco2)n(C(C)c2ccccn2)n1` (stereo not drawn), the ED50 worked out at 0.85 mg/kg.

Regarding `CCOC(=O)c1cc(-c2ccn(C)c2)n(C(C)c2ccccn2)n1` (stereo not drawn), the ED50 is 4.2 mg/kg.

Take `CCOC(=O)c1cc(-c2nc(C)no2)nn1C(C)c1ccccn1` (stereo not drawn): the ED50 was 0.79 mg/kg.

As to `CCOC(=O)c1cc(-c2cccnc2)nn1Cc1ccccn1`, the ED50 came out at 7 mg/kg.

Regarding `CCOC(=O)c1cc(-c2cccnc2)n(Cc2ccccn2)n1`, the ED50 was 17.7 mg/kg.

For `CCOC(=O)c1cc(-c2cccc(C)n2)nn1C(C)c1ccccn1` (stereo not drawn), the ED50 amounted to 1.6 mg/kg.

With `CCOC(=O)c1cc(-c2ccccn2)nn1Cc1ccccn1`, the ED50 stood at 5.1 mg/kg.

With `CCOC(=O)c1cc(-c2ccccc2N)nn1C(C)c1ccccn1` (stereo not drawn), the ED50 came out at 0.81 mg/kg.

`CCOC(=O)c1cc(-c2cccc(N)c2)nn1C(C)c1ccccn1` (stereo not drawn): the ED50 was 0.53 mg/kg.

As to `CCOC(=O)c1cc(-c2ccc(N)cc2)nn1C(C)c1ccccn1` (stereo not drawn), the ED50 is 2.7 mg/kg.

As to `CCOC(=O)c1cc(-c2cccc(N(C)C)c2)nn1C(C)c1ccccn1` (stereo not drawn), the ED50 is 1.5 mg/kg.

With `CCOC(=O)c1cc(-c2ccccc2)nn1C(C)c1ccccn1` (stereo not drawn), the ED50 stood at 2.8 mg/kg.

For the compound `CCOC(=O)c1cc(-c2ccccn2)nn1Cc1cccnc1`, the ED50 amounted to 30.5 mg/kg.

Consider `CCOC(=O)c1cc(-c2cnccn2)nn1C(C)c1ccccn1` (stereo not drawn), for which the ED50 was 1.5 mg/kg.

In the case of `CCOC(=O)C(=O)c1cc(C(=O)OCC)n(C(C)c2ccccn2)n1` (stereo not drawn) [CH3 / COCO2 Et / CO2 Et / N / CH], the ED50 came out at 2.86 mg/kg.

With `CCCNC(=O)c1cc(C(=O)OCC)n(C(C)c2ccccn2)n1` (stereo not drawn) [CH3 / CONHC3 H7 / CO2 Et / N / CH], the ED50 turned out to be 1.8 mg/kg.

A further assay deals with mice. Put plainly: Loss of righting after intravenous administration (mouse). It counts as in vivo. Conditions: 20 min, intravenous (lateral tail vein), 20 minute observation, acid addition salts, values corrected for the salts. How it is done: as §1
With `C=C(C)c1cc(C(=O)OCC)nn1C(C)c1ccccn1` (stereo not drawn), the ED50 was 8.9 mg/kg.

In the case of `CCOC(=O)c1cc(-c2nccs2)nn1C(C)c1ccccn1` (stereo not drawn), the ED50 came out at 3.2 mg/kg.

Regarding `CCOC(=O)c1cc(-c2cccs2)n(C(C)c2ccccn2)n1` (stereo not drawn), the ED50 came out at 17.6 mg/kg.

As for `CCOC(=O)c1cc(-c2ccsc2)n(C(C)c2ccccn2)n1` (stereo not drawn), the ED50 stood at 17.6 mg/kg.

As to `CCOC(=O)c1cc(-c2ccco2)nn1C(C)c1ccccn1` (stereo not drawn), the ED50 came out at 1.3 mg/kg.

As for `CCOC(=O)c1cc(-c2ccco2)nn1Cc1ccccn1`, the ED50 is 8.9 mg/kg.

Take `CCOC(=O)c1cc(-c2ccco2)n(Cc2ccccn2)n1`: the ED50 worked out at 17.6 mg/kg.

Consider `CCOC(=O)c1cc(-c2cccs2)n(Cc2ccccn2)n1`, for which the ED50 was found to be 14.3 mg/kg.

Consider `CCOC(=O)c1cc(-c2cccs2)nn1Cc1ccccn1`, for which the ED50 came out at 28.3 mg/kg.

For the compound `CCOC(=O)c1cc(-c2cnco2)nn1C(C)c1ccccn1` (stereo not drawn), the ED50 is 2.8 mg/kg.

On to `CCOC(=O)c1cc(-c2nnco2)nn1C(C)c1ccccn1` (stereo not drawn), for which the ED50 was determined as 9 mg/kg.

Consider `CCOC(=O)c1cc(-c2ccccn2)nn1C(C)c1ccccn1` (stereo not drawn), for which the ED50 worked out at 3.5 mg/kg.

In the case of `CCOC(=O)c1cc(-c2ccccn2)n(C(C)c2ccccn2)n1` (stereo not drawn), the ED50 stood at 17.5 mg/kg.

As to `CCOC(=O)c1cc(-c2ccncc2)nn1C(C)c1ccccn1` (stereo not drawn), the ED50 was 12 mg/kg.

As to `CCOC(=O)c1cc(-c2cccnc2)nn1C(C)c1ccccn1` (stereo not drawn), the ED50 came to 2.3 mg/kg.

With `CCOC(=O)c1nc(-c2cc(C(=O)OCC)n(C(C)c3ccccn3)n2)cs1` (stereo not drawn), the ED50 came to 13.6 mg/kg.

As for `CCOC(=O)c1cc(-c2csc(C(=O)OCC)n2)n(C(C)c2ccccn2)n1` (stereo not drawn), the ED50 worked out at 31.6 mg/kg.

Take `CCOC(=O)c1cc(-c2csc(-c3ccncc3)n2)nn1C(C)c1ccccn1` (stereo not drawn): the ED50 worked out at 5.7 mg/kg.

In the case of `CCOC(=O)c1cc(-c2csc(-c3ccncc3)n2)n(C(C)c2ccccn2)n1` (stereo not drawn), the ED50 came out at 51.4 mg/kg.

As for `CCOC(=O)c1cc(-c2cn3ccccc3n2)nn1C(C)c1ccccn1` (stereo not drawn), the ED50 is 14.3 mg/kg.

`CCOC(=O)c1cc(-c2cocn2)nn1C(C)c1ccccn1` (stereo not drawn): the ED50 turned out to be 7.7 mg/kg.

Take `CCOC(=O)c1cc(-c2cocn2)n(C(C)c2ccccn2)n1` (stereo not drawn): the ED50 turned out to be 13.4 mg/kg.

In the case of `CCOC(=O)c1cc(-c2ocnc2C)nn1C(C)c1ccccn1` (stereo not drawn), the ED50 worked out at 4.7 mg/kg.

As to `CCOC(=O)c1cc(-c2cc(C)on2)nn1C(C)c1ccccn1` (stereo not drawn), the ED50 was 9.9 mg/kg.

On to `CCOC(=O)c1cc(-c2cc(C)on2)n(C(C)c2ccccn2)n1` (stereo not drawn), for which the ED50 is 23.7 mg/kg.

Turning to `CCOC(=O)c1cc(-c2cccn2C)nn1C(C)c1ccccn1` (stereo not drawn), the ED50 was 0.95 mg/kg.

Turning to `CCOC(=O)c1cc(-c2cccn2C)n(C(C)c2ccccn2)n1` (stereo not drawn), the ED50 was 6.2 mg/kg.

For `CCOC(=O)c1cc(CC)nn1C(C)c1ccccn1` (stereo not drawn) [CH3 / CH2 CH3 / CO2 Et / N / CH], the ED50 came to 9.4 mg/kg.

As for `CC(=O)OCc1cc(C)n(C(C)c2ccccn2)n1` (stereo not drawn) [CH3 / CH2 OCOCH3 / CH3 / N / CH], the ED50 is 61.1 mg/kg.

Regarding `CCOC(=O)c1cc(C)nn1C(C)c1cccnc1` (stereo not drawn) [CH3 / CH3 / CO2 Et / CH / N], the ED50 came to 21.5 mg/kg.

Consider `CCOC(=O)c1cc(C)nn1C(C)c1ccccn1` (stereo not drawn) [CH3 / CH3 / CO2 Et / N / CH], for which the ED50 was determined as 9 mg/kg.

As for `CCOC(=O)c1cc(C(C)=O)nn1C(C)c1ccccn1` (stereo not drawn) [CH3 / CH3 CO / CO2 Et / N / CH], the ED50 was 4 mg/kg.

For `CCOC(=O)c1cc(C=O)nn1C(C)c1ccccn1` (stereo not drawn) [CH3 / CHO / CO2 Et / N / CH, 3-formyl-1-(1-(2-pyridinyl)ethyl)pyrazole-5-carboxylic acid ethyl ester], the ED50 stood at 9.9 mg/kg.

Turning to `CCOC(=O)c1cc(CC)n(C(C)c2ccccn2)n1` (stereo not drawn) [CH3 / CO2 Et / CH2 CH3 / N / CH], the ED50 was found to be 9.4 mg/kg.

In the case of `CCOC(=O)c1cc(COC)n(C(C)c2ccccn2)n1` (stereo not drawn) [CH3 / CO2 Et / CH2 OCH3 / N / CH], the ED50 is 19.1 mg/kg.

For the compound `CCOC(=O)c1cc(COC(C)=O)n(C(C)c2ccccn2)n1` (stereo not drawn) [CH3 / CO2 Et / CH2 OCOCH3 / N / CH], the ED50 is 28.3 mg/kg.

For `CCOC(=O)c1cc(C)n(C(C)c2cccnc2)n1` (stereo not drawn) [CH3 / CO2 Et / CH3 / CH / N], the ED50 came to 26.3 mg/kg.

`CCOC(=O)c1cc(C)n(C(C)c2ccccn2)n1` (stereo not drawn) [CH3 / CO2 Et / CH3 / N / CH]: the ED50 amounted to 6.9 mg/kg.

For the compound `CCOC(=O)c1cc(C(C)=O)n(C(C)c2ccccn2)n1` (stereo not drawn) [CH3 / CO2 Et / CH3 CO / N / CH], the ED50 was found to be 19.7 mg/kg.

Turning to `CCOC(=O)c1cc(C(=O)OCC)n(C(C)c2cccnc2)n1` (stereo not drawn) [CH3 / CO2 Et / CO2 Et / CH / N], the ED50 amounted to 8.6 mg/kg.

Consider `CCOC(=O)c1cc(C(=O)OCC)n(C(C)c2ccccn2)n1` (stereo not drawn) [CH3 / CO2 Et / CO2 Et / N / CH, 1-[1-(2-pyridyl)ethyl]pyrazole-3,5-dicarboxylic acid diethyl ester], for which the ED50 came out at 1.4 mg/kg.

Regarding `CCOC(=O)c1ccn(C(C)c2ccccn2)n1` (stereo not drawn) [CH3 / CO2 Et / H / N / CH], the ED50 amounted to 34.2 mg/kg.

Take `CCOC(=O)c1cc(O)n(C(C)c2ccccn2)n1` (stereo not drawn) [CH3 / CO2 Et / OH / N / CH]: the ED50 stood at 31 mg/kg.

`CCOC(=O)c1ccnn1C(C)c1ccccn1` (stereo not drawn) [CH3 / H / CO2 Et / N / CH]: the ED50 stood at 31 mg/kg.

As for `CCOC(=O)c1cc(C)nn1Cc1cccnc1` [H / CH3 / CO2 Et / CH / N], the ED50 came out at 25.1 mg/kg.

In the case of `CCOC(=O)c1cc(C)nn1Cc1ccccn1` [H / CH3 / CO2 Et / N / CH], the ED50 came to 17.4 mg/kg.

On to `CCOC(=O)c1cc(C)n(Cc2ccccn2)n1` [H / CO2 Et / CH3 / N / CH], for which the ED50 is 37.7 mg/kg.

Regarding `CCOC(=O)c1cc(C(=O)OCC)n(Cc2cccnc2)n1` [H / CO2 Et / CO2 Et / CH / N], the ED50 came out at 10.4 mg/kg.

On to `CCOC(=O)c1cc(C(=O)OCC)n(Cc2ccccn2)n1` [H / CO2 Et / CO2 Et / N / CH], for which the ED50 was 6.9 mg/kg.

On to `CCOC(=O)c1ccn(Cc2ccccn2)n1` [H / CO2 Et / H / N / CH], for which the ED50 worked out at 43.9 mg/kg.
